# PubChem BioAssay (NCI)
#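 Protocol summary: plate cells (96-well), add compound at 5 concentrations, incubate 48 h, interpolate endpoints linearly. GI50: concentration for 50% inhibition of growth. TGI marks complete inhibition of growth.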
# Experiments:
# Assay in all cases: inhibition of tumour cell growth, NCI panel, 48 h
# [1] = test system: 786-0 renal
# [2] = test system: A549 NSCLC
# [3] = test system: ACHN renal
# [4] = test system: BT-549 breast
# [5] = test system: CAKI-1 renal
# [6] = test system: CCRF-CEM leukemia
# [7] = test system: COLO 205 colon
# [8] = test system: DU-145 prostate
# [9] = test system: EKVX NSCLC
# [10] = test system: HCC-2998 colon
# [11] = test system: HCT-116 colon
# [12] = test system: HCT-15 colon
# [13] = test system: HL-60(TB) leukemia
# [14] = test system: HOP-62 NSCLC
# [15] = test system: HOP-92 NSCLC
# [16] = test system: HT29 colon
# [17] = test system: IGROV1 ovarian
# [18] = test system: K-562 leukemia
# [19] = test system: KM12 colon
# [20] = test system: LOX IMVI melanoma
# [21] = test system: M14 melanoma
# [22] = test system: MCF7 breast
# [23] = test system: MDA-MB-231 breast
# [24] = test system: MDA-MB-435
# [25] = test system: MOLT-4 leukemia
# [26] = test system: NCI-H226 lung
# [27] = test system: NCI-H23 lung
# [28] = test system: NCI-H460 lung
# [29] = test system: NCI-H522 lung
# [30] = test system: NCI/ADR-RES ovarian
# [31] = test system: OVCAR-3 ovarian
# [32] = test system: OVCAR-4 ovarian
# [33] = test system: OVCAR-5 ovarian
# [34] = test system: OVCAR-8 ovarian
# [35] = test system: PC-3 prostate
# [36] = test system: RXF 393 renal
# [37] = test system: SF-268 CNS
# [38] = test system: SF-295 CNS
# [39] = test system: SK-MEL-2 melanoma
# [40] = test system: SK-MEL-28 melanoma
# [41] = test system: SK-MEL-5 melanoma
# [42] = test system: SK-OV-3 ovarian
# [43] = test system: SN12C renal
# [44] = test system: SNB-19 CNS
# [45] = test system: SR leukemia
# [46] = test system: SW-620 colon
# [47] = test system: T-47D breast
# [48] = test system: TK-10 renal
# [49] = test system: U251 CNS
# [50] = test system: UACC-257 melanoma
# [51] = test system: UACC-62 melanoma
# [52] = test system: UO-31 renal
compound,measurement,setting,value
CC(C)CCN=C(N)c1ccc(N2CCN(c3ccc(C(N)=NCCC(C)C)cc3)CC2)cc1,GI50,[1],6.58 µM
same,TGI,[1],38 µM
same,GI50,[2],7.61 µM
same,TGI,[2],> 100 µM
same,GI50,[3],56.8 µM
same,TGI,[3],> 100 µM
same,GI50,[4],0.474 µM
same,TGI,[4],3.1 µM
same,GI50,[5],31.4 µM
same,TGI,[5],> 100 µM
same,GI50,[6],6.37 µM
same,TGI,[6],26.4 µM
same,GI50,[7],8.9 µM
same,TGI,[7],> 100 µM
same,GI50,[8],6.95 µM
same,TGI,[8],71.2 µM
same,GI50,[9],1 µM
same,TGI,[9],10.4 µM
same,GI50,[10],11.1 µM
same,TGI,[10],37.4 µM
same,GI50,[11],9.52 µM
same,TGI,[11],33.5 µM
same,GI50,[12],37.6 µM
same,TGI,[12],> 100 µM
same,GI50,[13],4.74 µM
same,TGI,[13],26.1 µM
same,GI50,[14],10.4 µM
same,TGI,[14],26.9 µM
same,GI50,[15],3.86 µM
same,TGI,[15],24.3 µM
same,GI50,[16],6.51 µM
same,TGI,[16],30.2 µM
same,GI50,[17],6.27 µM
same,TGI,[17],40.3 µM
same,GI50,[18],2.09 µM
same,TGI,[18],> 100 µM
same,GI50,[19],3.82 µM
same,TGI,[19],16.6 µM
same,GI50,[20],21.2 µM
same,TGI,[20],57.3 µM
same,GI50,[21],11.7 µM
same,TGI,[21],29.6 µM
same,GI50,[22],16.2 µM
same,TGI,[22],33.8 µM
same,GI50,[23],20.6 µM
same,TGI,[23],52.7 µM
same,GI50,[24],9.76 µM
same,TGI,[24],24.2 µM
same,GI50,[25],14.6 µM
same,TGI,[25],53.6 µM
same,GI50,[26],17.9 µM
same,TGI,[26],46.8 µM
same,GI50,[27],3.75 µM
same,TGI,[27],17.8 µM
same,GI50,[28],14.5 µM
same,TGI,[28],49.3 µM
same,GI50,[29],8.73 µM
same,TGI,[29],73.4 µM
same,GI50,[30],61.4 µM
same,TGI,[30],> 100 µM
same,GI50,[31],11.3 µM
same,TGI,[31],44.8 µM
same,GI50,[32],3.4 µM
same,TGI,[32],33.1 µM
same,GI50,[33],38.5 µM
same,TGI,[33],> 100 µM
same,GI50,[34],6.57 µM
same,TGI,[34],> 100 µM
same,GI50,[35],11.4 µM
same,TGI,[35],43.4 µM
same,GI50,[36],7.89 µM
same,TGI,[36],44.9 µM
same,GI50,[37],33.1 µM
same,TGI,[37],> 100 µM
same,GI50,[38],6.68 µM
same,TGI,[38],38.5 µM
same,GI50,[39],9.37 µM
same,TGI,[39],> 100 µM
same,GI50,[40],5.89 µM
same,TGI,[40],24.3 µM
same,GI50,[41],3.06 µM
same,TGI,[41],7.97 µM
same,GI50,[42],4.45 µM
same,TGI,[42],25.5 µM
same,GI50,[43],7.52 µM
same,TGI,[43],42.7 µM
same,GI50,[44],6.52 µM
same,TGI,[44],24.2 µM
same,GI50,[45],2.73 µM
same,TGI,[45],7.44 µM
same,GI50,[46],15.1 µM
same,TGI,[46],91.2 µM
same,GI50,[47],9.54 µM
same,TGI,[47],57.9 µM
same,GI50,[48],9.08 µM
same,TGI,[48],89.9 µM
same,GI50,[49],13.9 µM
same,TGI,[49],32.9 µM
same,GI50,[50],12.9 µM
same,TGI,[50],82.3 µM
same,GI50,[51],16.8 µM
same,TGI,[51],33.8 µM
same,GI50,[52],39.5 µM
same,TGI,[52],> 100 µM
